Data published in paper PMC10112710 (Nature, 2022).
Substitutions are numbered along the chain they refer to.

How the values were obtained:
Drosophila Sestrin [1] = target: T1, Drosophila Sestrin (Drosophila melanogaster, UniProt A0A0B4LGG4); format: binding; conditions: pH 7.4, on ice, 1 h; 150 mM KCl, 2.5 mM MgCl2, 0.1% Triton; Kd derived from IC50
T1 sequence (A0A0B4LGG4 1-467): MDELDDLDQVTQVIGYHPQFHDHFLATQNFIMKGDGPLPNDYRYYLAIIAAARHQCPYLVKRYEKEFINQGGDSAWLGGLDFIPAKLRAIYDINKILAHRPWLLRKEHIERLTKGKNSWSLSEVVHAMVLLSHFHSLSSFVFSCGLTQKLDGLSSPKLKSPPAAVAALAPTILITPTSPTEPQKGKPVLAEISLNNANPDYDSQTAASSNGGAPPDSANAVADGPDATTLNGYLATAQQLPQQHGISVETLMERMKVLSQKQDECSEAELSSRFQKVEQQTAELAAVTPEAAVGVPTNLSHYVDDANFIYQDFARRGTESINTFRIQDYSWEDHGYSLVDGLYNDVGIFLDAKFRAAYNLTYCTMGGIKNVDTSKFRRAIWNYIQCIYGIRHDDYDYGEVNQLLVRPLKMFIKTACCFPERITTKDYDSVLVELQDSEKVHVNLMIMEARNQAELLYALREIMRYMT

Drosophila Sestrin [2] = target: T2, Drosophila Sestrin (Drosophila melanogaster, UniProt A0A0B4LGG4, L431E); test: [3H]-leucine binding on immunopurified HA-tagged Sestrin; conditions: pH 7.4, on ice, 1 h; labelled compound; no binding detected
T2 sequence (A0A0B4LGG4 1-467 L431E): T1 sequence (A0A0B4LGG4 1-467) with L431E

Kd (Drosophila Sestrin [1]): ~100 µM
SMILES: CC(C)C[C@H](N)C(=O)O [leucine]
does not bind (Drosophila Sestrin [2]): fly Sestrin L431E does not bind leucine (Fig. 1b)
